SMILES strings stand for the structures.

The Ki is a dissociation constant, usually derived from enzyme kinetics or from competition with a known ligand. Read a low Ki as higher affinity.

T1 sequence (Q16602 23-461): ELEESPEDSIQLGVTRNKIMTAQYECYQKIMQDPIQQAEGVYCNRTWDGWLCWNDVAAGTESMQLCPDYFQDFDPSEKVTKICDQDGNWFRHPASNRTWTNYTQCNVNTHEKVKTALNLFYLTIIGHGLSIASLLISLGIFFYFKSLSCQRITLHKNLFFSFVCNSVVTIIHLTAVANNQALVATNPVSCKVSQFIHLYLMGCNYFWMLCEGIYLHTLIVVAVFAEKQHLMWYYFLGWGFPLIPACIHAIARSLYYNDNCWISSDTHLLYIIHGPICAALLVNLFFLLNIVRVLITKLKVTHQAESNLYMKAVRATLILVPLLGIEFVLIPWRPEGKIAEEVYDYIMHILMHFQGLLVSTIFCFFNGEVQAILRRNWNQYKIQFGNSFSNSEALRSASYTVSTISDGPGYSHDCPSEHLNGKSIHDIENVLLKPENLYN
T1 sequence (O60894 27-148): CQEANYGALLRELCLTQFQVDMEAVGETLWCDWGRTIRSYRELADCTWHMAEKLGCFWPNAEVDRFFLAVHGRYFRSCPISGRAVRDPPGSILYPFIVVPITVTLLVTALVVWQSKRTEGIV

This experiment concerns the target T1, human CGRP receptor (Homo sapiens, UniProt O60894+Q16602).
T1 construct: SK-N-MC membranes (˜20 μg protein) are incubated for 180 minutes at ambient temperature; endogenous in cells; host or cells: SK-N-MC cells (membranes)
The experiment is described as follows: Binding studies with SK-N-MC cells (125I-CGRP displacement from membranes). The settings on record: 50 pM 125I-iodotyrosyl-CGRP, 180 min, ambient temperature. As for the experimental part:
A. Binding Studies with SK-N-MC Cells (Expressing the Human CGRP Receptor)
SK-N-MC membranes (˜20 μg protein) are incubated for 180 minutes at ambient temperature with 50 pM ^125I-iodotyrosyl-Calcitonin-Gene-Related Peptide and increasing concentrations of the test substances in a total volume of 250 μl (assay buffer: 10 mM tris, 50 mM NaCl, 5 mM MgCl2, 1 mM EDTA, pH=7.4). The incubation is ended by rapid filtration through GF/B-glass fibre filters treated with polyethyleneimine (0.1%) using a cell harvester. The protein-bound radioactivity is measured using a gamma counter. Non-specific binding is defined as the bound radioactivity after the presence of 1 μM BIBN4096BS during incubation.
The concentration binding curves are analysed using computer-aided non-linear curve fitting.
For the molecule `COc1nc2cc(Oc3cc(N4CCC5(CC4)OC(=O)Nc4ncccc45)ncn3)cc(C)c2[nH]1` [(67)], the Ki amounted to 6 nM.
Molecule `Cc1cc(Oc2cc(N3CCC4(CC3)OC(=O)Nc3ncccc34)ncn2)cc2cn[nH]c12` [(68)] displayed a Ki of 4 nM. Against the preceding molecule, the Ki is about 1.5-fold lower.
As for `Cc1cc(Oc2cc(N3CCC4(CC3)OC(=O)Nc3ncccc34)ncn2)cc2c1NC(=O)CO2` [(69)], the Ki was 4 nM.
As for `Cc1cc(Oc2cc(N3CCC4(CC3)OC(=O)Nc3ncccc34)ncn2)cc2[nH]c([C@H]3CCCO3)nc12` [(70)], the figure is 5 nM; as for `Cc1nc(Oc2cc(C)c3[nH]c(=O)oc3c2)cc(N2CCC3(CC2)OC(=O)Nc2ncccc23)n1` [(71)], 8 nM; as for `COc1ccc2c(c1)CCN(C1CCN(c3cc(Oc4cc(C)c5[nH]c(=O)sc5c4)ncn3)CC1)C(=O)N2` [(72)], 3 nM.
With `COc1ccc2c(c1)CCN(C1CCN(c3cc(Oc4cc(C)c5nc(C6CCOC6)[nH]c5c4)ncn3)CC1)C(=O)N2` (stereo not shown) [(73)] the figure was 3 nM; with `Cc1cc(Oc2cc(N3CCC4(CC3)OC(=O)Nc3ncccc34)nc(C(F)(F)F)n2)cc2oc(=O)[nH]c12` [(74)], 29 nM.
Take `Cc1cc(Oc2cc(N3CCC4(CC3)OC(=O)Nc3ncccc34)ncc2C#N)cc2oc(=O)[nH]c12` [(75)]: the affinity corresponds to a Ki of 23 nM. The Ki values of the last two molecules are within 1.5-fold of each other.
Take `Cc1nc(Oc2cc(C)c3[nH]c(=O)oc3c2)cc(N2CCC3(CC2)CC(=O)Nc2ncccc23)n1` [(76)]: the affinity corresponds to a Ki of 26 nM.
Regarding `Cc1nc(Oc2cc(C)c3[nH]c(=O)oc3c2)cc(N2CCC3(CC2)C(=O)Nc2ncccc23)n1` [(77)], affinity was put at a Ki of 21 nM.
With `COc1ccc2c(c1)CCN(C1CCN(c3cc(Oc4cc(C(F)(F)F)c5nc(C)[nH]c5c4)ncn3)CC1)C(=O)N2` [(79)] the figure was 11 nM; with `COc1ccc2c(c1)CCN(C1CCN(c3cc(Oc4cc(C)c5[nH]c(=O)oc5c4)cc[n+]3[O-])CC1)C(=O)N2` [(80)], 11 nM.

Source of the values: US8952014B2, “Pyrimidine derivatives which are CGRP—antagonists” (Boehringer Ingelheim International GmbH, priority 2008, dated 2015).
